Experimental findings from US20050130903A1, “Therapeutic agents and methods of use thereof for the modulation of angiogenesis” (priority 2000, published 2005) are described below.

One data set has as its system human tumor cell lines. Description: panel of cancer cell lines, overall. In kind it is cell-based. To be noted: in words, summary of Table VIII. How it is done: The compound of example 5 was also evaluated against a panel of cancer cell lines (Alley, M. C. et al. […] Cancer Research 48: 589-601; Grever, M. R., et al. (1992) Seminars in Oncology, Vol. 19, No. 6, pp 622-638; Boyd, M. R., and Paull, K. D. (1995) Drug Development Research 34: 91-109). The human tumor cell lines of the cancer screening panel were grown in RPMI 1640 medium containing 5% fetal bovine serum and 2 mM L-glutamine. Cells were inoculated into 96 well microtiter plates in 100 μL at plating densities ranging from 5,000 to 40,000 cells/well depending on the doubling time of individual cell lines. […]
Following drug addition, the plates were incubated for an additional 48 hours at 37° C., 5% CO2, 95% air, and 100% relative humidity. […] Bound stain was subsequently solubilized with 10 mM trizma base, and the absorbance was read on an automated plate reader at a wavelength of 515 nm. […] Using the seven absorbance measurements [time zero, (Tz), control growth, (C), and test growth in the presence of drug at the five concentration levels (Ti)], the percentage growth was calculated at each of the drug concentrations levels.
Percentage growth inhibition was calculated as: [(Ti−Tz)/(C−Tz)]×100 for concentrations for which Ti>/=Tz [(Ti−Tz)/Tz]×100 for concentrations for which Ti<Tz. […]

Data set [1] in a line: plasma stability in human plasma. The format is in vitro ADME. To be noted: human. The protocol:
The plasma stability of the angiogenesis inhibitor compounds of the invention was also tested in human plasma at 37° C. (at a 20 μM concentration of the angiogenesis inhibitor compound). The matrix minus the test angiogenesis inhibitor compound was equilibrated at 37° C. for 3 minutes. The assay was initiated by addition of the test compound, and the reaction mixture was incubated in a shaking water bath at 37° C. […] The supernatant was analysed by Liquid Chromatography/Mass spectrometry (LC/MS) using a four point standard curve to obtain percent recovery.
The parent compound remaining (relative to time 0) in the incubation mixture was plotted as a function of time; a first order exponential equation was fit to the observed data, and the elimination half-lives associated with the disappearance of the test angiogenesis inhibitor compound were determined.

For data set [2], the system named is collagen-induced arthritis. As to the kind of experiment: collagen-induced arthritis model. The format is in vivo, Louvain rats. To be noted: for mean radiological evaluation score: control group 2.2. How it is done:
The efficacy of the compound described above in example 5 was evaluated using a collagen-induced arthritis model. Briefly, syngeneic 8-week-old female Louvain rats were immunized intradermally under ether anesthesia on Day 0 with 0.5 mg chick collagen II (Genzyme, Boston, Mass.) solubilized in 0.1M acetic acid and emulsified in Incomplete Freund's Adjuvant (Difco, Detroit, Mich.). Using this method, more than 90% of rats typically develop synovitis in both hind limbs 10-14 days post immunization. […] The compound of example 5 was dissolved in a combination of ethanol and distilled water. The rats were dosed commencing on day 10 post immunization as follows: (1) control group: vehicle only daily via intravenous injection (iv) (12 rats), (2) high dose group: 30 mg/kg of the compound of example 5 iv every other day (12 rats), (3) low dose group: 15 mg/kg of the compound of example 5 iv every day (12 rats) and (4) oral group: 100 mg/kg of the compound of example 5 every other day by gavage (11 rats).
Daily clinical evaluations of each paw were graded on an integer scale ranging from 0 to 4, where a score of 0 indicates a normal, unaffected limb, and 4 indicates severe joint destruction. The clinical score is the sum of the four limb scores, and has a maximum possible value of 16. Collagen induced arthritis typically develops only in the hind limbs; therefore, a score of 6 to 8 represents severe arthritis.
Radiologic evaluations of the hind limbs were performed by an investigator blinded to the treatment protocol. The score assigned to each limb was based on (1) the degree of soft tissue swelling, (2) narrowing of the space between joints, (3) degree of periosteal new bone formation and (4) the presence of erosions or ankylosis. Each limb was scored on a scale of 1 to 3, with 1 representing a normal limb and 3 representing severe joint destruction.

Data set [3] can be described thus: stability in liver microsomes. The format is in vitro ADME, rat. To be noted: male, rat, liver microsomes, pH 7.4, male rat liver microsomes 0.5 mg/mL, NADPH regenerating system. How it is done: The stability of the angiogenesis inhibitor compounds in liver microsomes was also tested. The test angiogenesis inhibitor compound at a concentration of 3 μM was incubated with male rat liver microsomes (0.5 mg/mL protein) in the presence of a NADPH regenerating system (1 mM NADP, 10 mM G6P, 1 U/mL G6PdH2, 3 mM MgCl2 ) in 100 mM Phosphate buffer at pH 7.4 at 37° C. Incubations were performed in the presence and absence of 1 μM epoxide hydrolase (EH) inhibitor N-cyclohexyl-N′-(3-phenylpropyl)urea (M. Morisseau et al. (1999) PNAS 96:8849-54) and quantitative analysis performed using LC/MS/MS.
The parent compound remaining (relative to time 0) in the incubation mixture was plotted as a function of time; a first order exponential equation was fit to the observed data, and the elimination half-lives associated with the disappearance of the test compound were determined.
In general terms: Microsomes from liver hold many membrane-bound enzymes, among them those of drug oxidation.

Where two headings read alike, the source gives them in different places. Bounds are passed on as bounds.

As to `CO[C@@H]1[C@H](OC(=O)N[C@@H](C(N)=O)C(C)C)CC[C@]2(CO2)[C@H]1[C@@]1(C)O[C@@H]1CC=C(C)C` [Example 5, (1-Carbamoyl-2-methyl-propyl)-carbamic acid-(3R,4S,5S,6R )-5-methoxy-4-[(2R,3R)-2-methyl-3-(3-methyl-but-2-enyl)-oxiranyl]-1-oxa-spiro[2.5]oct-6-yl ester], the “inhibitory effect on tumor cell lines” value in the data set on human tumor cell lines is “significant inhibitory effect on a wide variety of tumor cell lines”. Further, in data set [1], the recovery at 0 min, 20 μM was 100%; the recovery at 15 min, 20 μM is 108%; the recovery at 30 min, 20 μM turned out to be 103%; the recovery at 60 min, 20 μM turned out to be 97%. In addition, in data set [1], the recovery at 90 min, 20 μM is 129% and the recovery at 120 min, 20 μM turned out to be 107%. For the same compound, the half-life at 20 μM in data set [1] (plasma) is not below 500 min. The “mean daily clinical score (FIG. 2)” value in data set [2] (each treatment group, 19 day period from day 10) is given as “significant therapeutic benefit”. In addition, in data set [2] (high dose group: 30 mg/kg iv every other day), the “mean radiological evaluation score” value stood at 0.6. Besides, the “mean radiological evaluation score” value in data set [2] (low dose group: 15 mg/kg iv every day) came out at 0.6. Further, in data set [2] (oral group: 100 mg/kg every other day by gavage), the “mean radiological evaluation score” value is recorded as 1.6. The half-life at 3 μM in data set [3] (with 1 μM EH inhibitor, read-out: T1/2 (with EH inhibitor)) was 12.1 ± 1 min. Further, the half-life at 3 μM in data set [3] (without EH inhibitor, read-out: T1/2 (without EH inhibitor)) was 11.9 ± 1 min.
